Reference: ChEMBL document CHEMBL3596167, “Branched -d-mannopyranosides: a new class of potent FimH antagonists” (Medchemcomm, 2014)
The source made the active and inactive calls. The calls are words filed in the database; no cut-off is given here.

Assays:
HepG2 = assay: Cytotoxicity against human HepG2 cells at 1 to 10 uM after 24 hrs by CellTiter 96 aqueous one solution cell proliferation assay; assay type: cell-based; details: hepg2, 24 h
[1] = Solubility of the compound in DMSO at 10 uM; assay type: physicochemical
[2] = target: T1, Type 1 fimbrin D-mannose specific adhesin (Escherichia coli K-12, UniProt P08191); assay: Displacement of TM-PAA polymer from Escherichia coli FimH-CRD-Th-6-His expressed in Escherichia coli HM125 by competitive binding assay
T1 sequence (P08191 whole entry): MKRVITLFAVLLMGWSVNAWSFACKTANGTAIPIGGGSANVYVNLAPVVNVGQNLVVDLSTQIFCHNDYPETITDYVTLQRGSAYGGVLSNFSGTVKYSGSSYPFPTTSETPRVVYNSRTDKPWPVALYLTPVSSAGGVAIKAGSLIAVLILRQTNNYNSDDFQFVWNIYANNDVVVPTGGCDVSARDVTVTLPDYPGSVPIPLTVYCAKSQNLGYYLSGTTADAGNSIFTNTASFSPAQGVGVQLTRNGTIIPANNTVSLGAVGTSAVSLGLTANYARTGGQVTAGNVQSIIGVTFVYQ

[3] = target: Type 1 fimbrin D-mannose specific adhesin (Escherichia coli K-12) (UniProt P08191); assay: Displacement of TM-PAA polymer from Escherichia coli FimH-CRD-Th-6-His expressed in Escherichia coli HM125 by competitive binding assay relative to heptyl alpha-D-mannopyranoside
Chain of Type 1 fimbrin D-mannose specific adhesin (Escherichia coli K-12) (P08191 whole entry): as above

[4] = target: Type 1 fimbrin D-mannose specific adhesin (Escherichia coli K-12) (UniProt P08191); assay: Displacement of TM-PAA polymer from Escherichia coli FimH-CRD-Th-6-His expressed in Escherichia coli HM125 at <1 uM by competitive binding assay
[5] = target: Type 1 fimbrin D-mannose specific adhesin (Escherichia coli K-12) (UniProt P08191); assay: Inhibition of Escherichia coli FimH relative to methyl alpha-D-mannopyranoside
[6] = target: T1, Type 1 fimbrin D-mannose specific adhesin; assay: Binding affinity to Escherichia coli FimH
[7] = target: Type 1 fimbrin D-mannose specific adhesin (Escherichia coli K-12) (UniProt P08191); assay: Inhibition of Escherichia coli FimH relative to heptyl alpha-D-mannopyranoside

| Structure (SMILES) | Activity (HepG2) | IC50 [2] | other results |
| --- | --- | --- | --- |
| O=C(O)c1ccc(OCC(COc2cccc3ccccc23)O[C@H]2O[C@H](CO)[C@@H](O)[C@H](O)[C@@H]2O)cc1 (some centres not stated) | Non-toxic | 0.346 µM | solubility [1]: soluble; Ratio [3]: 0.17 |
| OC[C@H]1O[C@H](OC(COc2ccccc2)COc2ccccc2)[C@@H](O)[C@@H](O)[C@@H]1O | Non-toxic | – | – |
| COc1ccc2ccc(OCC(COc3ccc4ccc(OC)cc4c3)O[C@H]3O[C@H](CO)[C@@H](O)[C@H](O)[C@@H]3O)cc2c1 | Non-toxic | 0.593 µM | – |
| CCCCCCCO[C@H]1O[C@H](CO)[C@@H](O)[C@H](O)[C@@H]1O | – | 0.0589 µM | – |
| OC[C@H]1O[C@H](OCC(COc2cccc3ccccc23)Oc2cccc3ccccc23)[C@@H](O)[C@@H](O)[C@@H]1O (some centres not stated) | Non-toxic | – | inhibition [4]: inactive |
| OC[C@H]1O[C@H](OC(COc2ccc3ccccc3c2)COc2ccc3ccccc3c2)[C@@H](O)[C@@H](O)[C@@H]1O | Non-toxic | – | inhibition [4]: inactive |
| OCC#Cc1ccc(O[C@H]2O[C@H](CO)[C@@H](O)[C@H](O)[C@@H]2O)cc1 | – | – | Ratio [5]: 3380; Kd [6]: 0.00065 µM; Ratio [7]: 7.7 |
| COc1ccc(OCC(COc2ccc(OC)cc2)O[C@H]2O[C@H](CO)[C@@H](O)[C@H](O)[C@@H]2O)cc1 | Non-toxic | – | inhibition [4]: inactive |
| O=[N+]([O-])c1ccc(O[C@H]2O[C@H](CO)[C@@H](O)[C@H](O)[C@@H]2O)c(Cl)c1 | – | – | Ratio [5]: 717 |
| O=C(NCC(CNC(=O)c1ccc[nH]1)O[C@H]1O[C@H](CO)[C@@H](O)[C@H](O)[C@@H]1O)c1ccc[nH]1 | – | 0.607 µM | – |
| OC[C@H]1OC(O)[C@@H](O)[C@@H](O)[C@@H]1O (stereo partly drawn) [D-MANNOSE] | – | – | Kd [6]: 2.3 µM |
| O=[N+]([O-])c1ccc(OCC(CO[C@H]2O[C@H](CO)[C@@H](O)[C@H](O)[C@@H]2O)Oc2ccc([N+](=O)[O-])cc2)cc1 (some centres not stated) | Non-toxic | – | – |
| O=C(Cc1ccccc1)NCC(CNC(=O)Cc1ccccc1)O[C@H]1O[C@H](CO)[C@@H](O)[C@H](O)[C@@H]1O | – | – | inhibition [4]: inactive |
| OC[C@H]1O[C@H](OCC(COc2ccc3ccccc3c2)Oc2ccc3ccccc3c2)[C@@H](O)[C@@H](O)[C@@H]1O (some centres not stated) | Non-toxic | – | inhibition [4]: inactive |
| O=C(NCC(CNC(=O)c1ccc2ccccc2c1)O[C@H]1O[C@H](CO)[C@@H](O)[C@H](O)[C@@H]1O)c1ccc2ccccc2c1 | – | 0.763 µM | – |
| O=[N+]([O-])c1ccc(OCC(COc2ccc([N+](=O)[O-])cc2)O[C@H]2O[C@H](CO)[C@@H](O)[C@H](O)[C@@H]2O)cc1 | Non-toxic | 0.804 µM | – |
| COc1ccc2ccc(OCC(CO[C@H]3O[C@H](CO)[C@@H](O)[C@H](O)[C@@H]3O)Oc3ccc4ccc(OC)cc4c3)cc2c1 (some centres not stated) | Non-toxic | 0.875 µM | – |
| O=C(O)Cc1ccc(OCC(COc2cccc3ccccc23)O[C@H]2O[C@H](CO)[C@@H](O)[C@H](O)[C@@H]2O)cc1 (some centres not stated) | Non-toxic | 0.232 µM | solubility [1]: soluble; Ratio [3]: 0.25 |
| CCOc1c(Nc2ccc(O[C@H]3O[C@H](CO)[C@@H](O)[C@H](O)[C@@H]3O)c(Cl)c2)c(=O)c1=O | – | – | Ratio [5]: 6900 |
| O=C(Cc1ccc([N+](=O)[O-])cc1)NCC(CNC(=O)Cc1ccc([N+](=O)[O-])cc1)O[C@H]1O[C@H](CO)[C@@H](O)[C@H](O)[C@@H]1O | – | – | inhibition [4]: inactive |
| CCOCC(COc1ccc2ccccc2c1)O[C@H]1O[C@H](CO)[C@@H](O)[C@H](O)[C@@H]1O (some centres not stated) | Non-toxic | 0.746 µM | Ratio [3]: 0.08 |
| COc1ccc(OC(COc2ccc(O)cc2)CO[C@H]2O[C@H](CO)[C@@H](O)[C@H](O)[C@@H]2O)cc1 (some centres not stated) | Non-toxic | 0.208 µM | Ratio [3]: 0.28 |
| OC[C@H]1O[C@H](OC(COc2cccc3ccccc23)COc2cccc3ccccc23)[C@@H](O)[C@@H](O)[C@@H]1O | Non-toxic | – | – |
| COC(=O)c1ccc2ccc(OCC(COc3ccc4ccc(OC)cc4c3)O[C@H]3O[C@H](CO)[C@@H](O)[C@H](O)[C@@H]3O)cc2c1 (some centres not stated) | Non-toxic | 0.212 µM | solubility [1]: soluble; Ratio [3]: 0.28 |
| N#Cc1ccc(C(=O)NCC(CNC(=O)c2ccc(C#N)cc2)O[C@H]2O[C@H](CO)[C@@H](O)[C@H](O)[C@@H]2O)cc1 | – | 0.978 µM | – |
| O=[N+]([O-])c1ccc(CCO[C@H]2O[C@H](CO)[C@@H](O)[C@H](O)[C@@H]2O)cc1 | – | – | Ratio [5]: 85 |
| COc1ccc2ccc(OCC(COc3ccc4ccc(C(=O)O)cc4c3)O[C@H]3O[C@H](CO)[C@@H](O)[C@H](O)[C@@H]3O)cc2c1 (some centres not stated) | Non-toxic | 0.158 µM | solubility [1]: soluble; Ratio [3]: 0.37 |
